EC50 data for 13 compounds are collected here from US12583861B2, “Derivatives of imidazo[4,5-d]pyridazine, their preparation and their therapeutic application” (SANOFI, priority 2021, dated 2026).

pEC50: −log10 of the molar value.

One assay deals with T1, human TLR7 (Homo sapiens, UniProt Q9NYK1).
T1 construct: host or cells: HEK293 (HEK-Blue hTLR7)
T1 sequence (Q9NYK1 27-1049): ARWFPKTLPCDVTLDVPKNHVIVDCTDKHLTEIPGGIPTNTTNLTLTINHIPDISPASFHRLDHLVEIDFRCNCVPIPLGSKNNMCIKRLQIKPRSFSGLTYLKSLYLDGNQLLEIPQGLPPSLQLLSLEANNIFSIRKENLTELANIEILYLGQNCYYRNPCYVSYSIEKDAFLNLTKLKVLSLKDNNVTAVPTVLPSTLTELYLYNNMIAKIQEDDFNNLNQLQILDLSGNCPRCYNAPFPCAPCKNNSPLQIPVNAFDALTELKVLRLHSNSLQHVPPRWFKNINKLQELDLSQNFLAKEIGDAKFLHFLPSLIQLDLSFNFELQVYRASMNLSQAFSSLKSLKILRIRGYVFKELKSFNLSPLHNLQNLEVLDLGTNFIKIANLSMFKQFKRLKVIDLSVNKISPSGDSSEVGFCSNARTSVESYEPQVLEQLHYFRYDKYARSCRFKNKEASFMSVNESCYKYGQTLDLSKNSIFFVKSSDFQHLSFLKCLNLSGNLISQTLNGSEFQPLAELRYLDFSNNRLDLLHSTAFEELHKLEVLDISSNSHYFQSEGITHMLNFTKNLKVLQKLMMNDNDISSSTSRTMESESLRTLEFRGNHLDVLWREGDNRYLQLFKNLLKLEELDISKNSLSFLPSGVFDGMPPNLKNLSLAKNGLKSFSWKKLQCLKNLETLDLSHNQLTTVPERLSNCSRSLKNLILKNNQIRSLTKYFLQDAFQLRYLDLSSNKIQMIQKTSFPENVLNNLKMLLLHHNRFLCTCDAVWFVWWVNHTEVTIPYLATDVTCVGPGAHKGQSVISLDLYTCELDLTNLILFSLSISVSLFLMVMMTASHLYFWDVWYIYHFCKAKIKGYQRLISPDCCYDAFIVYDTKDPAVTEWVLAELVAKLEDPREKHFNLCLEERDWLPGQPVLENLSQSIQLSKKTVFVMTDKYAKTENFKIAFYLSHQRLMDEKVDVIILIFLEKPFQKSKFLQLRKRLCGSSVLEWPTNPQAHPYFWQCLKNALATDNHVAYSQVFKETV
The assay can be described thus: HEK-Blue hTLR7 reporter cell assay (SEAP, NF-kB/AP-1) for stimulation of human TLR7. It counts as cell-based. As to conditions: HEK-Blue hTLR7 cells, 24 h incubation, SEAP readout; read-out: TLR7_EC50. As to the method:
(§1) The below tests, involving measuring the in vitro activity of some compounds of the disclosure on TLR7 and TLR8, were carried out using the HEK-Blue™ cells as reporter.
The activity described below, with respect to TLR7, TLR8, IFN-α2a, IL-6, IL29 and TNF-α, is given by the half maximal effective concentration (EC50), which corresponds to the concentration required to obtain a 50% of the activation. The lower the EC50, the less the concentration of the compound is required to produce 50% of maximum activation and the higher the potency.
(§2) In Vitro Assay for Studying the Stimulation of Human TLR7 and TLR8:
(§3) HEK-Blue™ hTLR7 Cells (#hkb-htlr7) and HEK-Blue™ hTLR8 Cells (#hkb-htlr8) from InvivoGen were used according to the manufacturer's instructions. These Reporter HEK293 cells were obtained by co-transfection of the hTLR7 or TLR8 gene and an optimized Secreted Embryonic Alkaline Phosphatase (SEAP) reporter gene which is placed under the control of the IFN-β minimal promoter fused to five NF-κB and AP-1-binding sites. Stimulation with a TLR7/8 ligand activates NF-kB and AP-1 which induce the production of SEAP. The cells are seeded in 96-well plate at 3.10E4 cells/well and incubated 18 to 24 h at 37° C., 5% CO2 before adding the compounds to evaluate. The cells are subsequently incubated with 3-fold serial dilutions of each of the compounds (0.01 to 20 μM) for 24 hours at 37° C., 5% CO2. Next, 20 μL of the supernatant is harvested and incubated with 200 μL of QUANTI-Blue™ Solution.

The target in the next assay is T2, human TLR8 (Homo sapiens, UniProt Q9NR97).
T2 construct: host or cells: HEK293 (HEK-Blue hTLR8)
T2 sequence (Q9NR97 27-1041): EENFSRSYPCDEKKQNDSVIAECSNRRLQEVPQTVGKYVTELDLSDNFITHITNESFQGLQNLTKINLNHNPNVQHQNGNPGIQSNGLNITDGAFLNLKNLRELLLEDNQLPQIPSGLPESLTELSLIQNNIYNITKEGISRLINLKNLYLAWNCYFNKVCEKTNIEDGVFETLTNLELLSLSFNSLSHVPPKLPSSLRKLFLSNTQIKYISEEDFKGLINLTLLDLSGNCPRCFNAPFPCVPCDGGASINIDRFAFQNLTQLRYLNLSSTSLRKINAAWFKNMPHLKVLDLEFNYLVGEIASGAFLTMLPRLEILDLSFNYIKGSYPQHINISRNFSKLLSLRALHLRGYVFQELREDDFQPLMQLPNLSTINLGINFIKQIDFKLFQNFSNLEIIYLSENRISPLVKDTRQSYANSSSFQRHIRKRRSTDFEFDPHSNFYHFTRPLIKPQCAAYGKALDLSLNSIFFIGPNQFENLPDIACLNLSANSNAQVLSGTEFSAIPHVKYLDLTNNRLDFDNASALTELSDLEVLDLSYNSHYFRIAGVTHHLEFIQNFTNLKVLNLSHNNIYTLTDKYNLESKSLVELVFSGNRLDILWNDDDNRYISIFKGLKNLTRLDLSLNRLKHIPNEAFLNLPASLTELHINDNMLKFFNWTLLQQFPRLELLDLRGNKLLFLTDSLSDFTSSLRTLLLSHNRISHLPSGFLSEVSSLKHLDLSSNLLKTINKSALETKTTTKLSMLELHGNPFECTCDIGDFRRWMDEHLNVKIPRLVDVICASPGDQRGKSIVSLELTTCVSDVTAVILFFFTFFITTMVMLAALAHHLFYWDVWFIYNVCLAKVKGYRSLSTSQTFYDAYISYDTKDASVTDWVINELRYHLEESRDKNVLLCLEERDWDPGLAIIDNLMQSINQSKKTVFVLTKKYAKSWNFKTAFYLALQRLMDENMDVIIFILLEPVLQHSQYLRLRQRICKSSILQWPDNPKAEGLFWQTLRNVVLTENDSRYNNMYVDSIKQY
In words: HEK-Blue hTLR8 reporter cell assay (SEAP, NF-kB/AP-1) for stimulation of human TLR8. It counts as cell-based. Conditions: HEK-Blue hTLR8 cells, 24 h incubation, SEAP readout; read-out: TLR8_EC50. As for the experimental part: as §1, §2
as §3, with “The cells are subsequently incubated with 3-fold serial dilutions of each of the compounds (0.01 to 20 μM) for 24 hours at 37° C., 5% CO2.” left out

Turning to `CCCCc1nc2c(N)nnc(OC(C)C)c2n1Cc1ccc(C#N)cn1` [Compound 27, 6-((4-amino-2-butyl-7-isopropoxy-1H-imidazo[4,5-d]pyridazin-1-yl)methyl)nicotinonitrile], the pEC50 on human TLR7 is 5.68; on human TLR8, < 4.70.

`CCCCc1nc2c(N)nnc(OC(C)C)c2n1Cc1ccc(CNC(C)=O)cc1` [Compound 28, N-(4-((4-amino-2-butyl-7-isopropoxy-1H-imidazo[4,5c]pyridazin-1-yl)methyl)benzyl)acetamide]: the pEC50 at human TLR7 is 7.07; at human TLR8 it was < 4.70.

As for `CCCCCCCCCCC(=O)NCc1ccc(Cn2c(CCCC)nc3c(N)nnc(OC(C)C)c32)cc1` [Compound 29, N-(4-((4-amino-2-butyl-7-isopropoxy-1H-imidazo[4,5-d]pyridazin-1-yl)methyl)benzyl)undecanamide], the pEC50 at human TLR7 is 6.93; on human TLR8 it was < 4.70.

For `CCCCC(=O)NCc1ccc(Cn2c(CCCC)nc3c(N)nnc(OC(C)C)c32)cc1` [Compound 30, N-(4-((4-amino-2-butyl-7-isopropoxy-1H-imidazo[4,5-d]pyridazin-1-yl)methyl)benzyl)pentanamide], the pEC50 on human TLR7 is 6.79; on human TLR8 it was < 4.70.

Regarding `CCCCc1nc2c(N)nnc(OC(C)C)c2n1Cc1ccc(CNC(=O)CCOCCOC)cc1` [Compound 31, N-(4-((4-amino-2-butyl-7-isopropoxy-1H-imidazo[4,5-d]pyridazin-1-yl)methyl)benzyl)-3-(2-methoxyethoxy)propanamide], the pEC50 is 6.49 at human TLR7 and < 4.70 at human TLR8.

Take `CCCCc1nc2c(N)nnc(OC(C)C)c2n1Cc1ccc(CNC2CC2)cc1` [Compound 36, 2-butyl-1-(4-((cyclopropylamino)methyl)benzyl)-7-isopropoxy-1H-imidazo[4,5-d]pyridazin-4-amine]: the pEC50 at human TLR7 was 7.72; at human TLR8, 6.35.

With `CCCCc1nc2c(N)nnc(OC(C)C)c2n1Cc1ccc(CNC2CS(=O)(=O)C2)cc1` [Compound 37, 3-((4-((4-amino-2-butyl-7-isopropoxy-1H-imidazo[4,5-d]pyridazin-yl)methyl)benzyl)amino)thietane 1,1-dioxide], the results for the pEC50 on human TLR7 and on human TLR8 were 6.50 and < 4.70, respectively.

`CCCCc1nc2c(N)nnc(OC(C)C)c2n1Cc1ccc(CN(C(C)=O)C2CS(=O)(=O)C2)cc1` [Compound 38, N-(4-((4-amino-2-butyl-7-isopropoxy-1H-imidazo[4,5-d]pyridazin-1-yl)methyl)benzyl)-N-(1,1-dioxidothietan-3-yl)acetamide]: the pEC50 was 6.46 on human TLR7 and 4.83 on human TLR8.

As for `CCCCc1nc2c(N)nnc(OC(C)C)c2n1Cc1ccc(CNC2(C)CCC2)cc1` [Compound 39, 2-butyl-7-isopropoxy-1-(4-(((1-methylcyclobutyl)amino)methyl)benzyl)-1H-imidazo[4,5-d]pyridazin-4-amine], the pEC50 was 7.77 on human TLR7 and 6.40 on human TLR8.

Take `CCCCc1nc2c(N)nnc(OC(C)C)c2n1Cc1ccc(CN2CCNCC2)cc1` [Compound 40, 2-butyl-7-isopropoxy-1-(4-(piperazin-1-ylmethyl)benzyl)-1H-imidazo[4,5-d]pyridazin-4-amine]: the values for the pEC50 on human TLR7 and on human TLR8 were 7.68 and 5.64, respectively.

As to `CCCCc1nc2c(N)nnc(N3CCCC3)c2n1C` [Compound 42, 2-butyl-1-methyl-7-(pyrrolidin-1-yl)-1H-imidazo[4,5-d]pyridazin-4-amine], the figures for the pEC50 at human TLR7 and on human TLR8 were 5.83 and 5.06, respectively.

As to `CCCCc1nc2c(N)nnc(N(C)Cc3ccc(CN4CCOCC4)cc3)c2n1C` [Compound 44, 2-butyl-N7,1-dimethyl-N7-(4-(morpholinomethyl)benzyl)-1H-imidazo[4,5-d]pyridazine-4,7-diamine], the pEC50 is 5.95 on human TLR7 and 6.33 on human TLR8.

For the compound `CCCCc1nc2c(N)nnc(N(C)Cc3ccc(C#N)cc3)c2n1C` [Compound 45, 4-(((4-amino-2-butyl-1-methyl-1H-imidazo[4,5-d]pyridazin-7-yl)(methyl)amino)methyl)benzonitrile], the pEC50 was < 4.70 at human TLR7 and 5.03 on human TLR8.
